Results from patent US20250375453A1, “HIGH-EFFICIENCY ANTIMICROBIAL COMPOSITION” (CM4CURE S.A., priority 2023, published 2025).

Tests used:
[1] = tested on: Vancomycin-resistant Enterococcus faecalis (VRE, ATCC BAA-2573); assay: Synergy checkerboard assay / broth micro-dilution MIC (ISO 20776-1 with modifications); type: cell-based
Experimental: • 1. Preparation of the inoculum of Vancomycin-resistant Enterococcus faecalis (VRE, ATCC BAA-2573). Inoculum is prepared by suspension of 1 colony of bacteria (medium size colony from Tryptic Soy agar plate) in 3 ml of Tryptic Soy broth (TSB) using a 200 μL tip. The solution is mixed by vortexing and incubated at 37° C. overnight (19-24 hours) under shaking at 200 rpm. • 2. Preparation of the Antimicrobial dilution on the day of the experiment. Stock solutions are performed with distilled water for all antimicrobial compound except for Fluometacyl (ethanol). Dilution for each condition is made in Mueller-Hinton broth (NMB). 50p of APIs dilution is added to wells of a 96 wells microplate (each condition in duplicate-triplicate). • Antimicrobial compounds were prepared as follows: • Fluometacyl (F) (4 mg/mL in 100% EtOH) served as a master stock. To obtain the final concentration of 40 μg/ml in the bacterial suspension, initial stock of 160 μg/ml in Mueller-Hinton broth (MHB) was prepared and further 2-fold diluted using the following serial dilution scheme: • (1): 40 μg/ml (160 μg/ml, prepared in MHB) • (2): 20 μg/ml (80 μg/ml, dilution in MHB) • (3): 10 μg/ml (40 μg/ml, dilution in MHB) • (4): 5 μg/ml (20 μg/ml, dilution in MHB) • (5): 2.5 μg/ml (10 μg/ml, dilution in MHB) • (6): 1.25 μg/ml (5 μg/ml, dilution in MHB) • Chlorhexidine acetate (CHLX) (2 mg/mL in H2O) served as a master stock. To obtain the final concentration of 4 μg/ml in the bacterial suspension, initial stock of 16 μg/ml in MHB was prepared and further 2-fold diluted using the following serial dilution scheme: • (1): 8 μg/ml (32 μg/ml, prepared in MHB) • (2): 4 μg/ml (16 μg/ml, prepared in MHB) • (3): 2 μg/ml (8 μg/ml, dilution in MHB) • (4): 1 μg/ml (4 μg/ml, dilution in MHB) • (5): 0.5 μg/ml (2 μg/ml, dilution in MHB) • (6): 0.25 μg/ml (1 μg/ml, dilution in MHB) • 3. Preparation of VRE. Before the experiment, the VRE bacterial suspension (incubated overnight) is diluted 100× in TSB in 4 mL of TSB and grown at 37 C under agitation 200 rpm until OD600 reaches 0.08 to 0.16. This corresponds to the cell density […]. 100 μl of the bacterial solution (OD600 ranging from 0.08 to 0.16) is added to 9 900 μL of Mueller-Hinton Broth (MHB) (dilution 1:100). • 4. Preparation of a 96-well plate. 100 μL of bacteria (diluted 1:100 in MHB from the point 3) is added in each well of the plate containing 100 μL of the serially diluted APIs alone or in combinations as shown in the p. 2. Bacteria should be added into the 96-well plate within the 30 minutes following the preparation of the bacteria in order to maintain the same number of CFU/mL. Plates are incubated at 37° C. overnight. A condition with MHB medium alone or bacteria without APIs will also be added as the control conditions. Since fluometacyl is dissolved in ethanol, extra conditions are added: MHB with ethanol in order to assess the effect of ethanol on bacterial growth. • Following scheme is applied: • 2 antibacterial compounds: 50 μL of a antimicrobial 1+50 μL of a antimicrobial 2+100 μL of bacterial suspension in MHB • 1 antibacterial compound: 50 μL of a drug 1/2+50 μL of MHB+100 μL of bacterial suspension in MHB • Growth control: 100 μL MHB (+/−Ethanol)+100 μL of bacterial suspension • BLANK: MHB only • 5. CFU counting of the initial challenge inoculum. 10 μL of the solution of the bacteria used as the positive control is diluted in 10 mL of TSB. 100 μL is spread on Tryptic Soy agar (done in triplicate) and incubated at 37° C. overnight • 6. Results. The MIC is the lowest concentration that inhibits completely the visible growth of the bacteria (no turbidity in a well). The OD at 600 nm is also recorded for each well as back-up data.
Synergy evaluation resulting from the comparison between activity of the combination of the antimicrobial compounds and their individual activities was represented as the Fractional Inhibitory Concentration (FIC) index value. […]

[2] = tested on: Candida albicans (CA); assay: MIC in monotherapy and in combination therapy (ISO standard 20776-1); type: cell-based
Description: (§1) Summary of MIC Values for Fluometacyl (FLC)+Chlorhexidine (CHX) Tested Against MRSA, Enterococcus faecalis (VRE), Pseudomonas aeruginosa (PA) and Candida albicans (CA).
(§2) By Minimum Inhibitory Concentration (MIC) one means the lowest concentration of antimicrobial that prevents visible growth of a microorganism (determined according to ISO standard 20776-1).
(§3) This finds an implication in combining many known antimicrobials together rather than discovering new chemical entities.

[3] = tested on: Pseudomonas aeruginosa (PA); assay: as above; type: cell-based
Description: as §1, §2, §3

[4] = tested on: Staphylococcus aureus (MRSA); assay: as above; type: cell-based
Description: as §1, §2, §3

[5] = cited from earlier work
[6] = tested on: Pseudomonas aeruginosa (ATCC 15442); assay: Real-time microcalorimetric measurement of bacterial metabolic activity (heat flow, Calscreener); type: cell-based
Experimental: Pseudomonas aeruginosa (ATCC 15442) was grown overnight in TSB (tryptic soy broth) medium, before being diluted 1×10^7 fold in fresh TSB. Subsequently […] aliquots of diluted bacteria suspensions were respectively supplemented with 1, 2, 4, 6, 12 and 24 mg/L of chlorhexidine (digluconate solution, 20% in H2O, Merck). The aqueous solution of chlorhexidine was kept refrigerated according to the manufacturer's technical sheet. Chlorhexidine or mQH2O as a vehicle were added to the bacterial suspensions to obtain the given concentrations followed by a brief vortexing. Bacterial aliquots were then distributed in the dedicated non-activated inserts of a 48-well plate and grown for 24h or more under static conditions at 37 C using Calscreener technology to measure bacterial growth and metabolic activity in Real-Time as described in https://cordis.europa.eu/project/id/784514.
For the study of the combination of chlorhexidine and triafluocyl aforementioned diluted bacterial suspensions were supplemented with either chlorhexidine alone (1, 2, 4, 6, 12 mg/L) or mixed with triafluocyl (20 mg/L, Polpharma). Triafluocyl was stored in absolute ethanol in the refrigerator at a concentration of 3 mg/mL. Triafluocyl, chlorhexidine or both, and ethanol as a vehicle were added to the bacterial suspensions to obtain the given concentrations.
Pseudomonas aeruginosa (ATCC 15442) was grown overnight in TSB (tryptic soy broth) medium, before being diluted 1×10^7 fold in fresh TSB. Subsequently […] aliquots of diluted bacteria suspensions were respectively supplemented with […] of alexidine dihydrochloride (stock solution of 3 mg/mL in ethanol, Merck). […] The stock solutions of alexidine and fluometacyl were kept frozen according to the manufacturer's technical sheet. Alexidine alone or with fluometacyl, and ethanol as a vehicle were added to the bacterial suspensions to obtain the given concentrations followed by a brief vortexing. […]

[7] = tested on: Staphylococcus aureus (MRSA, ATCC 6538); assay: as above; type: cell-based
Experimental: Staphylococcus aureus (MRSA, ATCC 6538) was grown overnight in TSB (tryptic soy broth) medium, before being diluted 1×10^6 fold in fresh TSB. Subsequently […] aliquots of diluted bacteria suspensions were respectively supplemented with 1 and 2 mg/L of chlorhexidine (digluconate solution, 20% in H2O, Merck). […] The aqueous solution of chlorhexidine and the ethanol-based solution of triafluocyl were kept refrigerated. Chlorhexidine, triafluocyl or both, and ethanol as a vehicle were added to the bacterial suspensions to obtain the given concentrations followed by a brief vortexing. Bacterial aliquots were then distributed in the dedicated non-activated inserts of a 48-well plate and grown for 24 h or more under static conditions at 37 C using Calscreener technology to measure bacterial growth and metabolic activity in Real-Time as described in https://cordis.europa.eu/project/id/784514.
Staphylococcus aureus (MRSA, ATCC 6538) was grown overnight in TSB (tryptic soy broth) medium, before being diluted 1×10^6 fold in fresh TSB. Subsequently […] aliquots of diluted bacteria suspensions were respectively supplemented with 0.25, 0.5 and 1 μg/mL of chlorhexidine (digluconate solution, 20% in H2O, Merck) or alexidine dihydrochloride (stock solution of 3 mg/mL in ethanol, Merck).
The aqueous solution of chlorhexidine and the ethanol-based solution of alexidine were kept refrigerated. Chlorhexidine, alexidine, and ethanol as a vehicle were added to the bacterial suspensions to obtain the given concentrations followed by a brief vortexing. Bacterial aliquots were then distributed in the dedicated non-activated inserts of a 48-well plate and grown for 24 h or more under static conditions at 37 C using Calscreener technology to measure bacterial growth and metabolic activity in Real-Time as described in https://cordis.europa.eu/project/id/784514.
Staphylococcus aureus (MRSA, ATCC 6538) was grown overnight in TSB (tryptic soy broth) medium, before being diluted 1×10^6 fold in fresh TSB. Subsequently […] aliquots of diluted bacteria suspensions were respectively supplemented with […] of alexidine dihydrochloride (stock solution of 3 mg/mL in ethanol, Merck). […] The ethanol-based solutions of alexidine and fluometacyl were stored at −20° C.
Alexidine alone or with fluometacyl, and ethanol as a vehicle were added to the bacterial suspensions to obtain the given concentrations followed by a brief vortexing. Bacterial aliquots were then distributed in the dedicated non-activated inserts of a 48-well plate and grown for 24 h or more under static conditions at 37 C using Calscreener technology to measure bacterial growth and metabolic activity in Real-Time.

[8] = MIC combination / MIC monotherapy

Row | Compound | MIC ([1]; Enterococcus faecalis, antimicrobial alone, read-out: MIC Monotherapy (X)) | Ratio Y/X [1, 8] | MIC combination dual therapy (Y) ([1]; in FLC + CHX combination) | MIC Monotherapy (X) ([2]; antimicrobial alone) | MIC combination dual therapy (Y) ([2]; in FLC + CHX combination) | MIC Monotherapy (X) ([3]; antimicrobial alone) | MIC combination dual therapy (Y) ([3]; in FLC + CHX combination) | Ratio Y/X [4, 8] | MIC ([4]; Staphylococcus aureus, MRSA, antimicrobial alone, read-out: MIC Monotherapy (X)) | MIC combination dual therapy (Y) ([4]; in FLC + CHX combination) | solubility in an aqueous environment or aqueous medium [5] | effect on growth (heat flow) ([6]; alexidine 4 mg/mL alone) | effect on growth (heat flow) ([7]; alexidine 1 mg/mL alone) | effect on metabolic activity (heat flow), compared with chlorhexidine ([7]; alexidine 0.25 and 0.5 mg/mL alone) | effect on growth (heat flow) ([6]; triafluocyl 20 mg/L alone) | effect on growth (heat flow) ([7]; triafluocyl 1 mg/L alone)
1 | CCCSc1nc(N[C@@H]2C[C@H]2c2ccc(F)c(F)c2)c2nnn([C@@H]3C[C@H](O)[C@@H](O)[C@H]3O)c2n1 [Fluometacyl, (1S,2R,3S,4R)-4-[7-[[(1R,2S)-2-(3,4-Difluorophenyl)cyclopropyl]amino]-5-(propylthio)-3H-1,2,3-triazolo[4,5-d]pyrimidin-3-yl]-1,2,3-cyclopentanetriol] | 20 mg/mL | 0.125-0.5 | 2.5 to 10 mg/mL | Not detected | 20 mg/mL | Not detected | 20 mg/mL | 0.25-0.5 | 20 mg/mL | 5 to 10 mg/mL | generally not soluble | – | – | – | – | –
2 | alexidine | – | – | – | – | – | – | – | – | – | – | – | strong growth inhibition | full growth inhibition | noticeably stronger effect | – | –
3 | CCCSc1nc(N[C@@H]2C[C@H]2c2ccc(F)c(F)c2)c2nnn([C@@H]3C[C@H](OCCO)[C@@H](O)[C@H]3O)c2n1 [Triafluocyl, (1S,2S,3R,5S)-3-[7-[(1R,2S)-2-(3,4-difluorophenyl)cyclopropylamino]-5-(propylthio)-3H-[1,2,3]-triazolo[4,5-d]pyrimidin-3-yl]-5-(2-hydroxyethoxy)-1,2-cyclopentanediol] | – | – | – | – | – | – | – | – | – | – | generally not soluble | – | – | – | does not inhibit the growth | doesn't affect the growth
